SMILES strings stand for the structures.

The source of these data is patent publication US20020051795A1, “ASCORBIC ACID AS AN ADJUVANT IN THE REMOVAL OF VASCULAR OCCLUSIONS” (priority 1997, published 2002).

In this assay the test system is patients at risk for a vascular occlusion. Briefly: ascorbic acid infusion as adjuvant to thrombolytic treatment (streptokinase or heparin) in patients, compared with patients receiving no ascorbic acid. The format is in vivo, humans. The following applies: 20 patients; infusion of 70 ml of a 15% ascorbic acid solution diluted with physiological saline, pH 6.0 to 7.0, over four hours, with streptokinase (1.0×106 units) or heparin 2.5 mg/kg; versus equal number of patients with no ascorbic acid infusion but otherwise the same therapy. The procedure:
Treatment of a patient threatened by a vascular occlusion is administered, for example, by first giving the patient streptokinase (1.0×106 units) or heparin in a dose of 2.5 mg/kg […] in the form of an infusion over a period of 30 minutes. At the same time, the patient receives over a period of four hours an infusion of 70 ml of a 15% ascorbic acid solution diluted with physiological saline solution and adjusted to a pH of 6.0 to 7.0. The patient's condition is monitored continuously by an electrocardiogram. A group of 20 patients at risk for a vascular occlusion were treated by the procedure described above and compared with an equal number of patients receiving no ascorbic acid infusion during the operation but otherwise the same therapy.

Take `O=C1O[C@H]([C@@H](O)CO)C(O)=C1O` [ascorbic acid]: the “complications during the operation and during the subsequent two-week observation phase” value is on record as “significantly fewer complications”.
